What all share (assay type): functional
For test [1], the system named is Echinochloa crus-galli. The test can be described thus: Herbicidal activity against Echinochloa crus-galli (barnyard grass) assessed as growth rate at 3 g/acre.
Test [2] relates to Oryza sativa. The test can be described thus: Phytotoxicity in Oryza sativa (rice) assessed as assessed as growth rate at 30 g/acre by Oryza sativa (rice) injury assay.
Test [3] concerns Echinochloa crus-galli. Description: Herbicidal activity against Echinochloa crus-galli (barnyard grass).
The subject of test [4] is Oryza sativa. The test can be described thus: Phytotoxicity in Oryza sativa (rice) assessed as assessed as growth rate at 10 g/acre by Oryza sativa (rice) injury assay.
Test [5] has as its system Echinochloa crus-galli. Description: Herbicidal activity against Echinochloa crus-galli (barnyard grass) assessed as growth rate at 30 g/acre.
The subject of test [6] is Echinochloa crus-galli. The test can be described thus: Herbicidal activity against Echinochloa crus-galli (barnyard grass) assessed as growth rate at 1 g/acre.

Consider 24 molecules from ChEMBL document CHEMBL3046226, “Novel glycol benzyl ether herbicides: Herbicidal activity of 3,3a,5,9b-tetrahydro-2H-furo[3,2-c][2]benzopyran derivatives” (2006).

Molecules are shown by their SMILES. Converted amounts (≈) assume the structure as drawn.

The MIC is the least concentration at which growth counts as inhibited. Low values mean greater potency, high ones weaker potency. On to `CC[C@H]1O[C@@H]2c3ccccc3C(C)(CBr)O[C@@H]2[C@H]1OCc1ccccc1F` (stereo not given in full), for which the Activity is 71% in the test with Echinochloa crus-galli [1], 91% in the test on Oryza sativa [2], 91% in the test on Oryza sativa [4] and 0% in the test on Echinochloa crus-galli [5]. For the same molecule, the MIC with Echinochloa crus-galli [3] is > 3 µg/mL.

Regarding `CC[C@H]1O[C@@H]2c3ccccc3CO[C@@H]2[C@H]1O`, the Activity with Echinochloa crus-galli [1], in the test with Oryza sativa [2], with Oryza sativa [4], in the test with Echinochloa crus-galli [5] and with Echinochloa crus-galli [6] was 91% each time.

Turning to `CC[C@H]1O[C@@H]2c3ccccc3CO[C@@H]2[C@H]1OCc1cccc(F)c1`, the Activity worked out at 0% with Echinochloa crus-galli [1]; 91% with Oryza sativa [2]; 91% with Oryza sativa [4]; 0% with Echinochloa crus-galli [5]; 11% in the test with Echinochloa crus-galli [6]. In the test on Echinochloa crus-galli [3], this molecule displayed an MIC of 0.3 µg/mL (≈ 0.914 µM).

As for `CC[C@H]1O[C@@H]2c3sccc3COC2[C@H]1OCc1ccccc1C` (single isomer, unassigned), the Activity came to 0% in the test on Echinochloa crus-galli [1]; 91% with Oryza sativa [2]; 91% in the test with Oryza sativa [4]; 0% with Echinochloa crus-galli [5]; 6% with Echinochloa crus-galli [6]. In the test on Echinochloa crus-galli [3], the lowest concentration to inhibit growth (MIC) was 0.1 µg/mL (≈ 0.303 µM).

For `CC[C@H]1O[C@@H]2c3ccsc3CO[C@@H]2[C@H]1OCc1ccccc1F`, the Activity in the test on Echinochloa crus-galli [1] is reported as 0%; in the test on Oryza sativa [2], 91%; in the test on Oryza sativa [4], 91%; in the test on Echinochloa crus-galli [5] it was 0%; in the test with Echinochloa crus-galli [6] it was 6%. The same molecule returned an MIC with Echinochloa crus-galli [3] of 0.3 µg/mL (≈ 0.897 µM).

As for `CC[C@@H]1O[C@@H]2[C@@H](OCc3ccccc3F)[C@@H](CC)O[C@@H]2c2ccccc21`, the Activity with Echinochloa crus-galli [1] was 11%; with Oryza sativa [2], 0%; in the test with Echinochloa crus-galli [5], 0%; in the test on Echinochloa crus-galli [6] it was 91%. Moreover, the MIC against Echinochloa crus-galli [3] is 0.4 µg/mL (≈ 1.12 µM).

`CC[C@H]1O[C@@H]2c3ccccc3C(=O)O[C@@H]2[C@H]1OCc1ccccc1C`: the values for the Activity in the test with Oryza sativa [2], in the test on Oryza sativa [4] and with Echinochloa crus-galli [5] were 91%, 91% and 11%, respectively. Further, in the test on Echinochloa crus-galli [3], the minimum inhibitory concentration (MIC) came to 3 µg/mL (≈ 8.87 µM).

Regarding `CCc1ccccc1CO[C@@H]1[C@H]2OCc3ccccc3[C@H]2O[C@@H]1CC`, the Activity in the test on Echinochloa crus-galli [1] is 11%; in the test with Oryza sativa [2], 91%; in the test with Oryza sativa [4], 91%; in the test with Echinochloa crus-galli [5], 0%. This molecule also showed an MIC with Echinochloa crus-galli [3] of 0.6 µg/mL (≈ 1.77 µM).

For `CC[C@H]1O[C@@H]2c3ccccc3CO[C@@H]2[C@H]1OC(C)=O`, the Activity in the test on Echinochloa crus-galli [1], with Oryza sativa [2], with Oryza sativa [4], with Echinochloa crus-galli [5] and with Echinochloa crus-galli [6] was 91% in each case. This molecule showed an MIC in the test with Echinochloa crus-galli [3] of 80 µg/mL (≈ 305 µM).

For `CC[C@H]1O[C@@H]2c3ccccc3CO[C@@H]2[C@H]1OCc1ccc2ccccc2c1`, the Activity in the test with Echinochloa crus-galli [1], in the test with Oryza sativa [2], with Oryza sativa [4], in the test with Echinochloa crus-galli [5] and in the test on Echinochloa crus-galli [6] was 91% throughout. In the test on Echinochloa crus-galli [3], the MIC was > 10 µg/mL.

Consider `CC[C@H]1O[C@@H]2c3ccccc3CO[C@@H]2[C@H]1OC(=O)c1ccccc1`, for which the Activity in the test with Echinochloa crus-galli [1] was 91%; with Oryza sativa [2], 91%; in the test with Oryza sativa [4] it was 91%; in the test with Echinochloa crus-galli [5], 6%. This molecule gave an MIC in the test with Echinochloa crus-galli [3] of 3.3 µg/mL (≈ 10.2 µM).

Consider `Cc1ccccc1CO[C@H]1C[C@]2(C(C)C)CC[C@@]1(C)O2` (relative stereo) [REL-CINMETHYLIN], for which the Activity was found to be 0% with Echinochloa crus-galli [1]; 11% in the test with Oryza sativa [2]; 41% in the test on Oryza sativa [4]; 0% with Echinochloa crus-galli [5]; 0% with Echinochloa crus-galli [6]. Also, the MIC against Echinochloa crus-galli [3] was 0.1 µg/mL (≈ 0.364 µM).

Regarding `CC[C@H]1O[C@@H]2C[C@](C)(c3ccccc3)O[C@@H]2[C@H]1OCc1ccccc1F`, the Activity with Echinochloa crus-galli [1] amounted to 6%; with Oryza sativa [2], 6%; in the test on Oryza sativa [4], 91%; in the test on Echinochloa crus-galli [5] it was 0%. The same molecule had an MIC in the test with Echinochloa crus-galli [3] of 0.1 µg/mL (≈ 0.281 µM).

For the molecule `CC[C@H]1O[C@@H]2c3ccsc3CO[C@@H]2[C@H]1OCc1ccccc1C`, the Activity with Echinochloa crus-galli [1] worked out at 11%; in the test with Oryza sativa [2], 91%; in the test with Oryza sativa [4] it was 91%; in the test on Echinochloa crus-galli [5], 0%. Also, the MIC against Echinochloa crus-galli [3] is 0.7 µg/mL (≈ 2.12 µM).

As to `CC[C@H]1O[C@@H]2c3ccccc3CO[C@@H]2[C@H]1OCc1ccccc1`, the Activity is reported as 6% with Echinochloa crus-galli [1]; 0% in the test on Oryza sativa [2]; 11% with Oryza sativa [4]; 0% in the test with Echinochloa crus-galli [5]; 11% in the test on Echinochloa crus-galli [6]. This molecule also returned an MIC with Echinochloa crus-galli [3] of 0.4 µg/mL (≈ 1.29 µM).

With `CC[C@H]1O[C@@H]2c3ccccc3CO[C@@H]2[C@H]1OCc1cccc2ccccc12`, the Activity with Echinochloa crus-galli [1], with Oryza sativa [2], in the test on Oryza sativa [4], in the test with Echinochloa crus-galli [5] and in the test on Echinochloa crus-galli [6] was 91% each time. For the same molecule, the lowest concentration to inhibit growth in the test with Echinochloa crus-galli [3] (MIC) was 10 µg/mL (≈ 27.7 µM).

Take `CC[C@H]1O[C@@H]2c3ccccc3C(C)O[C@@H]2[C@H]1OCc1ccccc1C` (stereo not given in full): the Activity with Echinochloa crus-galli [1] turned out to be 0%; in the test on Oryza sativa [2] it was 11%; with Oryza sativa [4], 11%; with Echinochloa crus-galli [5], 0%; in the test with Echinochloa crus-galli [6], 6%. This molecule registered an MIC against Echinochloa crus-galli [3] of 0.2 µg/mL (≈ 0.591 µM).

As to `CC[C@H]1O[C@@H]2c3ccccc3CO[C@@H]2[C@H]1OCc1ccccc1C(F)(F)F`, the Activity in the test with Echinochloa crus-galli [1] was determined as 71%; in the test on Oryza sativa [2] it was 91%; in the test on Oryza sativa [4] it was 91%; with Echinochloa crus-galli [5] it was 0%; in the test on Echinochloa crus-galli [6], 91%. The same molecule showed an MIC with Echinochloa crus-galli [3] of 0.4 µg/mL (≈ 1.06 µM).

In the case of `CC[C@H]1O[C@@H]2c3ccccc3[C@H](C)O[C@@H]2[C@H]1OCc1ccccc1F`, the Activity in the test on Echinochloa crus-galli [1] turned out to be 0%; in the test with Oryza sativa [2], 0%; with Oryza sativa [4], 11%; with Echinochloa crus-galli [5], 0%; with Echinochloa crus-galli [6], 0%. This molecule showed an MIC with Echinochloa crus-galli [3] of 0.2 µg/mL (≈ 0.584 µM).

Take `CC[C@H]1O[C@@H]2c3ccccc3CO[C@@H]2[C@H]1OC(C)c1ccccc1` (stereo not given in full): the Activity in the test on Echinochloa crus-galli [1] is 41%; with Oryza sativa [2] it was 91%; with Oryza sativa [4], 91%; with Echinochloa crus-galli [5] it was 0%. Besides, 3 µg/mL (≈ 9.25 µM) was the least that counted as inhibitory in the test with Echinochloa crus-galli [3] (MIC).

Regarding `CC[C@H]1O[C@@H]2c3ccccc3CO[C@@H]2[C@H]1OCC1CCCCC1`, the Activity came to 91% in the test on Echinochloa crus-galli [1], 91% in the test on Oryza sativa [2], 91% in the test with Oryza sativa [4] and 11% in the test on Echinochloa crus-galli [5]. Besides, the lowest concentration to inhibit growth against Echinochloa crus-galli [3] (MIC) was 10 µg/mL (≈ 31.6 µM).

With `CC[C@H]1O[C@@H]2c3ccccc3CO[C@@H]2[C@H]1OCc1ccccc1Cl`, the Activity turned out to be 6% with Echinochloa crus-galli [1], 91% in the test with Oryza sativa [2], 91% in the test with Oryza sativa [4] and 0% with Echinochloa crus-galli [5]. The molecule also returned an MIC against Echinochloa crus-galli [3] of 0.2 µg/mL (≈ 0.58 µM).

Regarding `CC[C@H]1O[C@@H]2c3ccccc3CO[C@@H]2[C@H]1OC1CCc2ccccc21` (stereo not given in full), the Activity in the test on Echinochloa crus-galli [1] amounted to 41%; in the test with Oryza sativa [2], 91%; with Oryza sativa [4] it was 91%; in the test with Echinochloa crus-galli [5], 0%. In the test on Echinochloa crus-galli [3], this molecule had an MIC of 0.3 µg/mL (≈ 0.892 µM).

Take `CC[C@H]1O[C@@H]2[C@@H](OCc3ccccc3F)[C@@H](CC)O[C@@H]2c2ccccc21`: the Activity with Echinochloa crus-galli [1] was found to be 91%; in the test on Oryza sativa [2], 71%; with Echinochloa crus-galli [5], 0%; in the test on Echinochloa crus-galli [6], 91%. In addition, 0.8 µg/mL (≈ 2.24 µM) was the least that counted as inhibitory in the test with Echinochloa crus-galli [3] (MIC).
